The record followed here is ChEMBL document CHEMBL3352237, “Synthesis and biological evaluation of novel peptide BF2 as an antibacterial agent against clinical isolates of vancomycin-resistant enterococci” (J Med Chem, 2014).

The subject of data set [1] is Enterococcus faecalis. In words: Antibacterial activity against vancomycin-resistant Enterococcus faecalis clinical isolate 7846 after overnight incubation by two-fold serial dilution method. The format is functional.
Data set [2] has as its system Enterococcus faecium. The data set can be described thus: Bactericidal activity against vancomycin-resistant Enterococcus faecium clinical isolate 15/213 after 24 hrs by two-fold serial dilution method. The settings on record: isolate 15/213, 24 h. The format is functional.
In data set [3] the test system is Enterococcus faecium. The data set can be described thus: Antibacterial activity against vancomycin-resistant Enterococcus faecium clinical isolate 17301 after overnight incubation by two-fold serial dilution method. Type of data set: functional.
Data set [4] has as its system Enterococcus faecalis. The data set can be described thus: Antibacterial activity against vancomycin-resistant Enterococcus faecalis clinical isolate 387702 after overnight incubation by two-fold serial dilution method. Type of data set: functional.
Data set [5] deals with Enterococcus faecium. In words: Bactericidal activity against vancomycin-resistant Enterococcus faecium clinical isolate 147969 after 24 hrs by two-fold serial dilution method. The settings on record: isolate 147969, 24 h. The format is functional.
Data set [6] deals with Enterococcus faecium. The data set can be described thus: Antibacterial activity against vancomycin-resistant Enterococcus faecium clinical isolate 12/266 after overnight incubation by two-fold serial dilution method. The format is functional.
Data set [7] relates to Enterococcus faecium. The data set can be described thus: Bactericidal activity against vancomycin-resistant Enterococcus faecium clinical isolate 18906 after 24 hrs by two-fold serial dilution method. Type of data set: functional. The settings on record: isolate 18906, 24 h.
Data set [8] relates to Enterococcus. In words: Antibacterial activity against vancomycin-resistant Enterococcus ATCC 29212 after overnight incubation by two-fold serial dilution method. Type of data set: functional.
In data set [9] the test system is Enterococcus faecium. The data set can be described thus: Antibacterial activity against vancomycin-resistant Enterococcus faecium clinical isolate 5396 after overnight incubation by two-fold serial dilution method. The format is functional.
In data set [10] the test system is Enterococcus. The data set can be described thus: Antibacterial activity against vancomycin-resistant Enterococcus clinical isolate after 18 to 20 hrs by checkerboard titration method in presence of vancomycin. Type of data set: functional.
The subject of data set [11] is Enterococcus faecium. The data set can be described thus: Antibacterial activity against vancomycin-resistant Enterococcus faecium clinical isolate 10177 after overnight incubation by two-fold serial dilution method. Type of data set: functional.
For data set [12], the system named is Rattus norvegicus. In words: Toxicity in Wistar albino rat infected with Enterococcus at MIC to 3 times MIC, iv. Type of data set: organism-based. The settings on record: in vivo.
In data set [13] the test system is Enterococcus faecium. In words: Antibacterial activity against vancomycin-resistant Enterococcus faecium clinical isolate 16115 after overnight incubation by two-fold serial dilution method. The format is functional.

Regarding H-RWRLLLLKKH-OH, the MIC was 12.5 mg/L in data set [1]; 6.25 mg/L in [3]; 6.25 mg/L in [4]; 6.25 mg/L in [6]; 25 mg/L in data set [8]; 6.25 mg/L in [9]. Besides, the MIC in data set [11] and in data set [13] was 12.5 mg/L each time. For the same substance, the MBC in [2], in data set [5] and in [7] was 25 mg/L each time. Moreover, the “fractional inhibitory concentration index (FICI)” value in data set [10] was determined as 0.25. In addition, in [12], the Activity entry is listed as “Non-toxic”.
